Experimental data from patent publication US11572590B2, “Methods for evaluating tumor cell spheroids using 3D microfluidic cell culture device” (Dana-Farber Cancer Institute, Inc., priority 2017, dated 2023).
Read-outs that look alike come from different tables or passages of the source.

Key:
Experiment in all cases: SelectScreen Kinase Profiling, single point inhibition and IC50 for off-target kinases
Format in all cases: biochemical
off-target kinases [1] = biological target: T1, off-target kinases (Homo sapiens, UniProt Q12851); conditions: MAP4K2 (GCK), ZLYTE, ATP Km app
T1 sequence (Q12851 1-820): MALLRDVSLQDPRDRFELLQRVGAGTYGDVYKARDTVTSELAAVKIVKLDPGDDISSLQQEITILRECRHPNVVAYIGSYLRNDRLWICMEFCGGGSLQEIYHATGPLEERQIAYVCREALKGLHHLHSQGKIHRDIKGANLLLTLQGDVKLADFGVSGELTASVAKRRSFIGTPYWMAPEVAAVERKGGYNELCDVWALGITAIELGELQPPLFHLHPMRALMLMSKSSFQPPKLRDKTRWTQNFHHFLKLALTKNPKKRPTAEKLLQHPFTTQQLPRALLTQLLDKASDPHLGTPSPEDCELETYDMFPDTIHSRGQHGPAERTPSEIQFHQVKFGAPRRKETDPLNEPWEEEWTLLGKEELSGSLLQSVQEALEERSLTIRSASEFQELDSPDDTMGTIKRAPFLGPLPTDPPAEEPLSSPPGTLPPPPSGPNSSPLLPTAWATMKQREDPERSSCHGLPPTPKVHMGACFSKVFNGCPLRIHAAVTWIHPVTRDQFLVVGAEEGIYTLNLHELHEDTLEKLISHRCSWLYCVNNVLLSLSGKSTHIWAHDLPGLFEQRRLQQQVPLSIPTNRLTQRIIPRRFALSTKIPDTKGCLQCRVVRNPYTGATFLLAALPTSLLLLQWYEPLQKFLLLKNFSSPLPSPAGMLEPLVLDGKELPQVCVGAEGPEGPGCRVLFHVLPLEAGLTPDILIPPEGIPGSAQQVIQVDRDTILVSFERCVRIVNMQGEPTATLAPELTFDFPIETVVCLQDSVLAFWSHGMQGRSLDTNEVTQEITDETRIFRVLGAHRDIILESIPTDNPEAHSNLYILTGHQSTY

off-target kinases [2] = biological target: off-target kinases (Homo sapiens, UniProt P49761); conditions: CLK3, ZLYTE, ATP Km app
Chain of off-target kinases (Homo sapiens, UniProt P49761) (P49761 whole entry): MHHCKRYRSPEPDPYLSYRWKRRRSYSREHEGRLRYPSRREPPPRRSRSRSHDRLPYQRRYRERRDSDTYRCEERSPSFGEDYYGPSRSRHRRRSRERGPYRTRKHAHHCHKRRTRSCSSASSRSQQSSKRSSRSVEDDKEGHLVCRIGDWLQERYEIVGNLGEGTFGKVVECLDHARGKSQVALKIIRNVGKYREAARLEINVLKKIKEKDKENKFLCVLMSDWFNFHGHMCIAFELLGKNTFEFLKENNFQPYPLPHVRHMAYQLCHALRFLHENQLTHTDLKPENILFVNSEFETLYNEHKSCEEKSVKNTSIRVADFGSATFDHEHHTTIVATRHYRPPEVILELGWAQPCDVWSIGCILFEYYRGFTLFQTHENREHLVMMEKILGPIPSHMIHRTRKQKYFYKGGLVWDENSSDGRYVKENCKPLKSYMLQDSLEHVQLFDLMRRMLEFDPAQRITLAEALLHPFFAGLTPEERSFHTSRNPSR

off-target kinases [3] = biological target: off-target kinases (Homo sapiens, UniProt P42356); conditions: PI4KA (PI4K alpha), Adapta, ATP 10
Chain of off-target kinases (Homo sapiens, UniProt P42356) (P42356 whole entry): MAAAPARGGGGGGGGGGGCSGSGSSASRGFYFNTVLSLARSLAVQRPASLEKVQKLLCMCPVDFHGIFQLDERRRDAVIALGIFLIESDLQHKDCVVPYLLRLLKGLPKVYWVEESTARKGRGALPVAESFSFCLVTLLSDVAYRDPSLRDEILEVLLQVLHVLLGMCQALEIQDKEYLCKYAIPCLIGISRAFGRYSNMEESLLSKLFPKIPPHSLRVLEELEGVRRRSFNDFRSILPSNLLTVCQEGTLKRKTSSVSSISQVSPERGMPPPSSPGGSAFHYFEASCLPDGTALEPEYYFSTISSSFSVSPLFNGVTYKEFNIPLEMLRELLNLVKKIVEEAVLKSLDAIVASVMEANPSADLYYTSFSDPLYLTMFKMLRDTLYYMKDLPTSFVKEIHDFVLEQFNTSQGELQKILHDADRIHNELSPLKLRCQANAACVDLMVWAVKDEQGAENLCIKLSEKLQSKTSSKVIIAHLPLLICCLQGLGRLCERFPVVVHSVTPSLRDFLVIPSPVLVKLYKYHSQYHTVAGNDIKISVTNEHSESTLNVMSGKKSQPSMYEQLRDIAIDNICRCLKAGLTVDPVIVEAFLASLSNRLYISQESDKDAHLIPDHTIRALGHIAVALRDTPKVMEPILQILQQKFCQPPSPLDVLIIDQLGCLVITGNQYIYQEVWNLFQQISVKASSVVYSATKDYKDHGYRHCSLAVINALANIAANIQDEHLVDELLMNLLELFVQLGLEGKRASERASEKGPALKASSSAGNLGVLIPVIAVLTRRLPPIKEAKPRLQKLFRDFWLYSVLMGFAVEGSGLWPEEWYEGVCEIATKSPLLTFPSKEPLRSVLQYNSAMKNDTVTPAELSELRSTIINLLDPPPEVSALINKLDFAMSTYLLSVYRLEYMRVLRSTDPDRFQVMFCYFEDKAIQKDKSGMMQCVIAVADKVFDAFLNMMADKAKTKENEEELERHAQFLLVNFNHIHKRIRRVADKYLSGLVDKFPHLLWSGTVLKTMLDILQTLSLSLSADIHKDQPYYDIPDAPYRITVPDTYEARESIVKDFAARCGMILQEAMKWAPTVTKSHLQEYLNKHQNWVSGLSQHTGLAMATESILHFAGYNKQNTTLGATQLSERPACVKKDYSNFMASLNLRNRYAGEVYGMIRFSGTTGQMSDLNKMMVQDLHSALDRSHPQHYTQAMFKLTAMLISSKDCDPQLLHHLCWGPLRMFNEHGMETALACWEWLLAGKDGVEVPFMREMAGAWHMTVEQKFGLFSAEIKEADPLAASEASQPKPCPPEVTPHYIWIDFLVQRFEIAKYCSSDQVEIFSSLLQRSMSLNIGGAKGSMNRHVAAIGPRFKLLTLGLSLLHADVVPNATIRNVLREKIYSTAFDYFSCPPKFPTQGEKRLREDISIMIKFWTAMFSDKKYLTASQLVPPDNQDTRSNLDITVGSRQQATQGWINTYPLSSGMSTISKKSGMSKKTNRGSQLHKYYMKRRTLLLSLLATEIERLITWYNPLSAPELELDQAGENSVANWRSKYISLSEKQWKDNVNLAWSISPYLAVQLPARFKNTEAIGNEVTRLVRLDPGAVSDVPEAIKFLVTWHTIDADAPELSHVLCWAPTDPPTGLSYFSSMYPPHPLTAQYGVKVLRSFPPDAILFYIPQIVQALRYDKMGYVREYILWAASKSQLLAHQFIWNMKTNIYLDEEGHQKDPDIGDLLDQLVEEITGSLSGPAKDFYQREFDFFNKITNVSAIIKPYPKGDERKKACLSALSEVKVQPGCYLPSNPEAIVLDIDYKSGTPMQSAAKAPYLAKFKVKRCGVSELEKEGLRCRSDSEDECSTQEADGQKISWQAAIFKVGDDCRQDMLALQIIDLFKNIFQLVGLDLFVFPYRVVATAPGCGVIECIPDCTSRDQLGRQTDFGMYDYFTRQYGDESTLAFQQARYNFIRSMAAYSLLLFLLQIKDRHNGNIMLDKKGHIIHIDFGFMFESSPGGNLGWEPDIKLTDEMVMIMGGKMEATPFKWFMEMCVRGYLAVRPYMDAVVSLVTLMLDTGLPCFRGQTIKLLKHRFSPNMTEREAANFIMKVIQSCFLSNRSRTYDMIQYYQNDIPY

off-target kinases [4] = biological target: off-target kinases (Homo sapiens, UniProt P51617); conditions: IRAK1, ATP Km app, Adapta
Chain of off-target kinases (Homo sapiens, UniProt P51617) (P51617 whole entry): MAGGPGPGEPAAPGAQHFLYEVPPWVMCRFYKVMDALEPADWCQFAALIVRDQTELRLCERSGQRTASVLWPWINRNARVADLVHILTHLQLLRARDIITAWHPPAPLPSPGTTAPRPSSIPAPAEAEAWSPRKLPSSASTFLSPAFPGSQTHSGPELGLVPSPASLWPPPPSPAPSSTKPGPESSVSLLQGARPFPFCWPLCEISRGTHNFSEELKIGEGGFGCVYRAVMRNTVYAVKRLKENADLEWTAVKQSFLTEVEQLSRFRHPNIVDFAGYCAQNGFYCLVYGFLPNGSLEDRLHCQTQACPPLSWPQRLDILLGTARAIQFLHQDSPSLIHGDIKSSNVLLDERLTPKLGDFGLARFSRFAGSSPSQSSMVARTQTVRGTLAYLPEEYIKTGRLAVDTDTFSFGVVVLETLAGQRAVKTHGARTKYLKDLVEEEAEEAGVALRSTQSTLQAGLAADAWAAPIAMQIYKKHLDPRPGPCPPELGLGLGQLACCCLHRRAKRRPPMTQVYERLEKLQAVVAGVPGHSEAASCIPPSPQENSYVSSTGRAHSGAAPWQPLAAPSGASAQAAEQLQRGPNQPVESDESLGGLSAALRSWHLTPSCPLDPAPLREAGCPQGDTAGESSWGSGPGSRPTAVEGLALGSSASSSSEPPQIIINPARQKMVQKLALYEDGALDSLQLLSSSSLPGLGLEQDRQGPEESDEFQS

off-target kinases [5] = biological target: off-target kinases (Homo sapiens, UniProt P36894); conditions: BMPR1A (ALK3), LanthaScreen Binding
Chain of off-target kinases (Homo sapiens, UniProt P36894) (P36894 24-532): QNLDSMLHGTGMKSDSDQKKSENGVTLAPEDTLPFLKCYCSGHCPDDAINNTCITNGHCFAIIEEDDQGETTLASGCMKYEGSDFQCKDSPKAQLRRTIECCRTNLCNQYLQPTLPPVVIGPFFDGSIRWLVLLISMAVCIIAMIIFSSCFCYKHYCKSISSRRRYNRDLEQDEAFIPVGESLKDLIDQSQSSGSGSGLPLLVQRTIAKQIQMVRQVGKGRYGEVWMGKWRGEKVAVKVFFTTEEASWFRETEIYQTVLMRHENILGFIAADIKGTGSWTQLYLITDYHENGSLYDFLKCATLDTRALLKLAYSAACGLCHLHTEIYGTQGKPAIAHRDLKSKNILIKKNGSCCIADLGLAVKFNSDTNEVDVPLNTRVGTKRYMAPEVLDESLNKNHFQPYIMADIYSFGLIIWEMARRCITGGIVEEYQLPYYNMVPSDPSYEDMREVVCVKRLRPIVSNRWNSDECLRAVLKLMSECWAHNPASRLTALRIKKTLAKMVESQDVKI

off-target kinases [6] = biological target: off-target kinases (Homo sapiens, UniProt P27037); conditions: ACVR2A, LanthaScreen Binding
Chain of off-target kinases (Homo sapiens, UniProt P27037) (P27037 20-513): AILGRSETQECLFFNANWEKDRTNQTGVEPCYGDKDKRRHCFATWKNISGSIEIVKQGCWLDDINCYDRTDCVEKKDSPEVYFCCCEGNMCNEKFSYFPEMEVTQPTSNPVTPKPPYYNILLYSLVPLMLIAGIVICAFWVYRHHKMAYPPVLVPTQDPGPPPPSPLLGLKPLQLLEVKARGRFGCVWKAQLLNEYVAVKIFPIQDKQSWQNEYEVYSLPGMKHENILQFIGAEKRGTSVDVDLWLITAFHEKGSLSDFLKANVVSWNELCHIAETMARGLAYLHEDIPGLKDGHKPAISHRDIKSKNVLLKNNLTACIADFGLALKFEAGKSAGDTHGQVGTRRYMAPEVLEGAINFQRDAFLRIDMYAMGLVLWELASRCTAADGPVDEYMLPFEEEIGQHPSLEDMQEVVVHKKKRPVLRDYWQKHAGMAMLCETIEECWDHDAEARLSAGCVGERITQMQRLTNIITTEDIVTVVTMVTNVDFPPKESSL

For `N#Cc1cc(-c2ncnc(Nc3ccc(N4CCN(C5COC5)CC4)cc3)n2)ccc1OC1CCOCC1` [Compound 1, 5-(4-((4-(4-(oxetan-3-yl)piperazin-1-yl)phenyl)amino)-1,3,5-triazin-2-yl)-2-((tetrahydro-2H-pyran-4-yl)oxy)benzonitrile], the inhibition (off-target kinases [1]; read-out: % Inhibition 1) was 6%, the inhibition (off-target kinases [1]; read-out: % Inhibition 2) was -2% and the inhibition (off-target kinases [1]; read-out: % Inhibition Avg) was 2%. The inhibition (off-target kinases [2]; read-out: % Inhibition 1) was 1%, the inhibition (off-target kinases [2]; read-out: % Inhibition 2) was 3% and the inhibition (off-target kinases [2]; read-out: % Inhibition Avg) was 2%. For the same compound, the inhibition (off-target kinases [3]; read-out: % Inhibition 1) was 3%, the inhibition (off-target kinases [3]; read-out: % Inhibition 2) was -3% and the inhibition (off-target kinases [3]; read-out: % Inhibition Avg) was 0%. The inhibition (off-target kinases [4]; read-out: % Inhibition 1) was 94%, the inhibition (off-target kinases [4]; read-out: % Inhibition 2) was 96% and the inhibition (off-target kinases [4]; read-out: % Inhibition Avg) was 95%. The inhibition (off-target kinases [5]; read-out: % Inhibition 1) was 51%, the inhibition (off-target kinases [5]; read-out: % Inhibition 2) was 51% and the inhibition (off-target kinases [5]; read-out: % Inhibition Avg) was 51%. The inhibition (off-target kinases [6]; read-out: % Inhibition 1) was 23%, the inhibition (off-target kinases [6]; read-out: % Inhibition 2) was 21% and the inhibition (off-target kinases [6]; read-out: % Inhibition Avg) was 22%.
